In US20210017295A1, “BISPECIFIC BINDING AGENTS AND USES THEREOF” (MEMORIAL SLOAN KETTERING CANCER CENTER, priority 2018, published 2021):
Several values for one entry are separate records, joined by “and”; a condition that tells them apart may be missing. Identical values can stand only once.

Tests used:
Type in all cases: in vivo, mouse
[1] = test system: s.c. HER2(−) MDA-MB-468 tumors; details: 24 h p.i.
[2] = Toxicity assessment: weight monitoring and removal criteria
[3] = Clinical chemistry panel; details: small tumors; single-cycle study, 55.5 MBq; ~85 d
[4] = Histopathology at necropsy and pathology severity scoring; details: small tumors; single-cycle study; ~85 d; individual animals
[5] = Hematology panel; details: small tumors; single-cycle study, 55.5 MBq; ~85 d
[6] = test system: HER2(+) BT-474 tumors; assay: Biodistribution with modified BsAb / clearing agent time intervals (same-day PRIT); details: for average blood uptake / average tumor uptake: 24 h p.i.
Experimental: During a second set of experiments (Table 31), the BsAb timing interval was varied, as well as the timing interval between the clearing agent and ^177Lu-DOTA-Bn. All animals were sacrificed 24 hours-post-injection of ^177Lu-DOTA-Bn.

[7] = MDA-MB-468 HER2(−), PRIT + no CA, mean ± SEM
[8] = medium tumors, single-cycle, 33.3 MBq, ~200 d
[9] = small tumors, single-cycle study, 55.5 MBq, ~85 d
[10] = BsAb for 4 hours, then CA vehicle only (total BsAb circulation 8 hours)
[11] = Table 30 group 3 (increased clearing agent dose)

Nc1ccc(CC2CN(CC(=O)[O-])CCN(CC(=O)[O-])CCN(CC(=O)[O-])CCN2CC(=O)[O-])cc1.[177Lu+3] (centres unmarked) [^177Lu-DOTA-Bn]
tumor uptake in HER2(−) tumors vs HER2(+) BT-474 tumors, fold lower ([1]; PRIT, no CA): ~7 fold
^177Lu activity in Blood [1, 7]: 6.59 ± 1.31 % IA/g
^177Lu activity in Bone [1, 7]: 0.62 ± 0.17 % IA/g
^177Lu activity in Heart [1, 7]: 1.78 ± 0.29 % IA/g
^177Lu activity in Kidneys [1, 7]: 2.39 ± 0.54 % IA/g
^177Lu activity in Large Int. [1, 7]: 0.35 ± 0.06 % IA/g
^177Lu activity in Liver [1, 7]: 2.69 ± 0.35 % IA/g
^177Lu activity in Lungs [1, 7]: 2.44 ± 0.42 % IA/g
^177Lu activity in Muscle [1, 7]: 0.50 ± 0.14 % IA/g
^177Lu activity in Small Int. [1, 7]: 0.61 ± 0.11 % IA/g
^177Lu activity in Spleen [1, 7]: 1.06 ± 0.16 % IA/g
^177Lu activity in Stomach [1, 7]: 0.27 ± 0.04 % IA/g
^177Lu activity in Tumor [1, 7]: 2.75±0.17 % IA/g
animals removed: Discovered deceased [2, 8]: 1/5
animals removed: Tumor burden [2, 8]: 4/5
animals removed: Weight loss [2, 8]: 0/5
animals removed: Discovered deceased [2, 9]: 0/5
animals removed: Tumor burden [2, 9]: 0/5
animals removed: Weight loss [2, 9]: 0/5
ALT [3]: 34 U/L and 40 U/L and 30 U/L and 45 U/L and 24 U/L
BUN [3]: 22 mg/dL and 21 mg/dL and 23 mg/dL and 33 mg/dL and 38 mg/dL
CREA [3]: 0.20 mg/dL and 0.18 mg/dL and 0.19 mg/dL and 0.30 mg/dL and 0.22 mg/dL
Histopathologic findings, Bone marrow [4]: N
Histopathologic findings, Kidney [4]: N
Histopathologic findings, Liver [4]: N
Histopathologic findings, Spleen [4]: HH, 3. and N (2×)
HGB [5]: 13.1 g/dL and 12.9 g/dL and 14.3 g/dL and 14.9 g/dL and 14.0 g/dL
RBC [5]: 8.22 M/μL and 7.74 M/μL and 8.54 M/μL and 8.80 M/μL and 8.32 M/μL
Tumor:Blood ratio [6, 10]: ~3.2
blood uptake [6, 10]: 12.07 % ID/g
tumor uptake [6, 10]: ~40 % ID/g
average blood uptake ([6]; Table 30 group 1): 0.06
average tumor uptake ([6]; Table 30 group 1): 11.62
average blood uptake [6, 11]: 0.03
average tumor uptake [6, 11]: 4.14
